IC50 data for 17 molecules are collected here from patent US10806785B2, “Immunomodulator compounds and methods of use” (Incyte Corporation, priority 2016, dated 2020).

What is called IC50 is the concentration at which inhibition is half-maximal. A higher IC50 goes with a need for much substance.

Sequence of PD-1/PD-L1 (Q9NZQ7 19-238): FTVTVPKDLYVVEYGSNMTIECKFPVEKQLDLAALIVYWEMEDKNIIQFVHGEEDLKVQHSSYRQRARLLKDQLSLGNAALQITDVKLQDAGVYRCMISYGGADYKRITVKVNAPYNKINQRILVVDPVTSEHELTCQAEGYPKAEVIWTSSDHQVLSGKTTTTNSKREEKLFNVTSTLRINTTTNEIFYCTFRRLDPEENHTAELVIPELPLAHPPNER

The assay concerns the target PD-1/PD-L1 (Homo sapiens (Human), UniProt Q9NZQ7). As to the kind of experiment: PD-1/PD-L1 binding assay (HTRF). Summed up: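 Fc-tagged human PD-1 (25-167) and His-tagged PD-L1 (19-238), listed as […] and 10 nM final, preincubated 40 min with inhibitors in PBS pH 7.4, 0.05% Tween-20, 0.1% BSA, 1% DMSO, 25 °C. Eu anti-IgG/APC anti-His added, 60 min, 665/620 nm HTRF ratio; IC50 fitted from percent control activity.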
Background: TR-FRET usually uses a lanthanide donor and a delayed reading to cut background.
On to `Cn1c(C(=O)Nc2cccc(-c3cccc(NC(=O)c4nc5c(n4C)CCN(CC[C@H]4CC[C@H](C(=O)O)CC4)C5)c3Cl)c2Cl)nc2c1CCNC2` [Example 85, trans-4-(2-(2-((2,2′-dichloro-3′-(1-methyl-4,5,6,7-tetrahydro-1H-imidazo[4,5-c]pyridine-2-carboxamido)-[1,1′-biphenyl]-3-yl)carbamoyl)-1-methyl-1,4,6,7-tetrahydro-5H-imidazo[4,5-c]pyridin-5-yl)ethyl)cyclohexane-1-carboxylic acid], for which the IC50 was at most 10 nM.

`CCN1CCc2c(nc(C(=O)Nc3cccc(-c4cccc(NC(=O)c5nc6c(n5C)CCN(CC[C@H]5CC[C@H](C(=O)O)CC5)C6)c4Cl)c3Cl)n2C)C1` [Example 86, trans-4-(2-(2-((2,2′-dichloro-3′-(5-ethyl-1-methyl-4,5,6,7-tetrahydro-1H-imidazo[4,5-c]pyridine-2-carboxamido)-[1,1′-biphenyl]-3-yl)carbamoyl)-1-methyl-1,4,6,7-tetrahydro-5H-imidazo[4,5-c]pyridin-5-yl)ethyl)cyclohexane-1-carboxylic acid] returned an IC50 of at most 10 nM.

Consider `Cn1c(C(=O)Nc2cccc(-c3cccc(NC(=O)c4nc5c(n4C)CCN(CC4CC4)C5)c3Cl)c2Cl)nc2c1CCN(CC[C@H]1CC[C@H](C(=O)O)CC1)C2` [Example 87, trans-4-(2-(2-((2,2′-dichloro-3′-(5-(cyclopropylmethyl)-1-methyl-4,5,6,7-tetrahydro-1H-imidazo[4,5-c]pyridine-2-carboxamido)-[1,1′-biphenyl]-3-yl)carbamoyl)-1-methyl-1,4,6,7-tetrahydro-5H-imidazo[4,5-c]pyridin-5-yl)ethyl)cyclohexane-1-carboxylic acid], for which the IC50 was at most 10 nM.

For `CC(C)N1CCc2c(nc(C(=O)Nc3cccc(-c4cccc(NC(=O)c5nc6c(n5C)CCN(CC[C@H]5CC[C@H](C(=O)O)CC5)C6)c4Cl)c3Cl)n2C)C1` [Example 88, trans-4-(2-(2-((2,2′-dichloro-3′-(5-isopropyl-1-methyl-4,5,6,7-tetrahydro-1H-imidazo[4,5-c]pyridine-2-carboxamido)-[1,1′-biphenyl]-3-yl)carbamoyl)-1-methyl-1,4,6,7-tetrahydro-5H-imidazo[4,5-c]pyridin-5-yl)ethyl)cyclohexane-1-carboxylic acid], the IC50 is at most 10 nM.

As for `Cn1c(C(=O)Nc2cccc(-c3cccc(NC(=O)c4nc5c(n4C)CCN(C4CCC4)C5)c3Cl)c2Cl)nc2c1CCN(CC[C@H]1CC[C@H](C(=O)O)CC1)C2` [Example 89, trans-4-(2-(2-((2,2′-dichloro-3′-(5-cyclobutyl-1-methyl-4,5,6,7-tetrahydro-1H-imidazo[4,5-c]pyridine-2-carboxamido)-[1,1′-biphenyl]-3-yl)carbamoyl)-1-methyl-1,4,6,7-tetrahydro-5H-imidazo[4,5-c]pyridin-5-yl)ethyl)cyclohexane-1-carboxylic acid], the IC50 was at most 10 nM.

Molecule `Cn1c(C(=O)Nc2cccc(-c3cccc(NC(=O)c4nc5c(n4C)CCN(C4CCCC4)C5)c3Cl)c2Cl)nc2c1CCN(CC[C@H]1CC[C@H](C(=O)O)CC1)C2` [Example 90, trans-4-(2-(2-((2,2′-dichloro-3′-(5-cyclopentyl-1-methyl-4,5,6,7-tetrahydro-1H-imidazo[4,5-c]pyridine-2-carboxamido)-[1,1′-biphenyl]-3-yl)carbamoyl)-1-methyl-1,4,6,7-tetrahydro-5H-imidazo[4,5-c]pyridin-5-yl)ethyl)cyclohexane-1-carboxylic acid] came in with an IC50 of at most 10 nM.

`Cn1c(C(=O)Nc2cccc(-c3cccc(NC(=O)c4nc5c(n4C)CCN(C4CCCCC4)C5)c3Cl)c2Cl)nc2c1CCN(CC[C@H]1CC[C@H](C(=O)O)CC1)C2` [Example 91, trans-4-(2-(2-((2,2′-dichloro-3′-(5-cyclohexyl-1-methyl-4,5,6,7-tetrahydro-1H-imidazo[4,5-c]pyridine-2-carboxamido)-[1,1′-biphenyl]-3-yl)carbamoyl)-1-methyl-1,4,6,7-tetrahydro-5H-imidazo[4,5-c]pyridin-5-yl)ethyl)cyclohexane-1-carboxylic acid] yielded an IC50 of at most 10 nM.

For the molecule `Cn1c(C(=O)Nc2cccc(-c3cccc(NC(=O)c4nc5c(n4C)CCN(C4CCOCC4)C5)c3Cl)c2Cl)nc2c1CCN(CC[C@H]1CC[C@H](C(=O)O)CC1)C2` [Example 92, trans-4-(2-(2-((2,2′-dichloro-3′-(1-methyl-5-(tetrahydro-2H-pyran-4-yl)-4,5,6,7-tetrahydro-1H-imidazo[4,5-c]pyridine-2-carboxamido)-[1,1′-biphenyl]-3-yl)carbamoyl)-1-methyl-1,4,6,7-tetrahydro-5H-imidazo[4,5-c]pyridin-5-yl)ethyl)cyclohexane-1-carboxylic acid], the IC50 is at most 10 nM.

Turning to `Cn1c(C(=O)Nc2cccc(-c3cccc(NC(=O)c4nc5c(n4C)CCN(CC[C@H]4CC[C@H](C(=O)O)CC4)C5)c3Cl)c2Cl)nc2c1CCN(CCO)C2` [Example 93, trans-4-(2-(2-((2,2′-dichloro-3′-(5-(2-hydroxyethyl)-1-methyl-4,5,6,7-tetrahydro-1H-imidazo[4,5-c]pyridine-2-carboxamido)-[1,1′-biphenyl]-3-yl)carbamoyl)-1-methyl-1,4,6,7-tetrahydro-5H-imidazo[4,5-c]pyridin-5-yl)ethyl)cyclohexane-1-carboxylic acid], the IC50 was at most 10 nM.

As to `C[C@H](O)CN1CCc2c(nc(C(=O)Nc3cccc(-c4cccc(NC(=O)c5nc6c(n5C)CCN(CC[C@H]5CC[C@H](C(=O)O)CC5)C6)c4Cl)c3Cl)n2C)C1` [Example 94, trans-4-(2-(2-((2,2′-dichloro-3′-(5-((S)-2-hydroxypropyl)-1-methyl-4,5,6,7-tetrahydro-1H-imidazo[4,5-c]pyridine-2-carboxamido)-[1,1′-biphenyl]-3-yl)carbamoyl)-1-methyl-1,4,6,7-tetrahydro-5H-imidazo[4,5-c]pyridin-5-yl)ethyl)cyclohexane-1-carboxylic acid], the IC50 was at most 10 nM.

Molecule `C[C@@H](O)CN1CCc2c(nc(C(=O)Nc3cccc(-c4cccc(NC(=O)c5nc6c(n5C)CCN(CC[C@H]5CC[C@H](C(=O)O)CC5)C6)c4Cl)c3Cl)n2C)C1` [Example 95, trans-4-(2-(2-((2,2′-dichloro-3′-(5-((R)-2-hydroxypropyl)-1-methyl-4,5,6,7-tetrahydro-1H-imidazo[4,5-c]pyridine-2-carboxamido)-[1,1′-biphenyl]-3-yl)carbamoyl)-1-methyl-1,4,6,7-tetrahydro-5H-imidazo[4,5-c]pyridin-5-yl)ethyl)cyclohexane-1-carboxylic acid] displayed an IC50 of at most 10 nM.

As to `Cn1c(C(=O)Nc2cccc(-c3cccc(NC(=O)c4nc5c(n4C)CCN(C4CCOCC4)C5)c3Cl)c2Cl)nc2c1CCN(CCc1ccc(C(=O)O)cc1)C2` [Example 96, 4-(2-(2-((2,2′-dichloro-3′-(1-methyl-5-(tetrahydro-2H-pyran-4-yl)-4,5,6,7-tetrahydro-1H-imidazo[4,5-c]pyridine-2-carboxamido)-[1,1′-biphenyl]-3-yl)carbamoyl)-1-methyl-1,4,6,7-tetrahydro-5H-imidazo[4,5-c]pyridin-5-yl)ethyl)benzoic acid], the concentration for half-maximal inhibition (IC50) is at most 10 nM.

`Cn1c(C(=O)Nc2cccc(-c3cccc(NC(=O)c4nc5c(n4C)CCN(C4CCC(C(=O)O)CC4)C5)c3Cl)c2Cl)nc2c1CCN(C1CCOCC1)C2` (centres unmarked) [Example 97, 4-(2-((2,2′-dichloro-3′-(1-methyl-5-(tetrahydro-2H-pyran-4-yl)-4,5,6,7-tetrahydro-1H-imidazo[4,5-c]pyridine-2-carboxamido)-[1,1′-biphenyl]-3-yl)carbamoyl)-1-methyl-1,4,6,7-tetrahydro-5H-imidazo[4,5-c]pyridin-5-yl)cyclohexane-1-carboxylic acid]: the IC50 was at most 10 nM.

`Cn1c(C(=O)Nc2cccc(-c3cccc(NC(=O)c4nc5c(n4C)CCN(C4CCC(C)(C(=O)O)CC4)C5)c3Cl)c2Cl)nc2c1CCN(C1CCOCC1)C2` (centres unmarked) [Example 98, 4-(2-((2,2′-dichloro-3′-(1-methyl-5-(tetrahydro-2H-pyran-4-yl)-4,5,6,7-tetrahydro-1H-imidazo[4,5-c]pyridine-2-carboxamido)-[1,1′-biphenyl]-3-yl)carbamoyl)-1-methyl-1,4,6,7-tetrahydro-5H-imidazo[4,5-c]pyridin-5-yl)-1-methylcyclohexane-1-carboxylic acid] had an IC50 of at most 10 nM.

In turn, `CCC1(C(=O)O)CCC(N2CCc3c(nc(C(=O)Nc4cccc(-c5cccc(NC(=O)c6nc7c(n6C)CCN(C6CCOCC6)C7)c5Cl)c4Cl)n3C)C2)CC1` (centres unmarked) [Example 99, 4-(2-((2,2′-dichloro-3′-(1-methyl-5-(tetrahydro-2H-pyran-4-yl)-4,5,6,7-tetrahydro-1H-imidazo[4,5-c]pyridine-2-carboxamido)-[1,1′-biphenyl]-3-yl)carbamoyl)-1-methyl-1,4,6,7-tetrahydro-5H-imidazo[4,5-c]pyridin-5-yl)-1-ethylcyclohexane-1-carboxylic acid] registered an IC50 of at most 10 nM.

Take `Cc1c(NC(=O)c2nc3c(n2C)CCN(CCc2ccc(C(=O)O)cc2)C3)cccc1-c1cccc(NC(=O)c2nc3c(n2C)CCN(C)C3)c1Cl` [Example 101, 4-(2-(2-((2′-chloro-3′-(1,5-dimethyl-4,5,6,7-tetrahydro-1H-imidazo[4,5-c]pyridine-2-carboxamido)-2-methyl-[1,1′-biphenyl]-3-yl)carbamoyl)-1-methyl-1,4,6,7-tetrahydro-5H-imidazo[4,5-c]pyridin-5-yl)ethyl)benzoic acid]: the IC50 was at most 10 nM.

`Cc1c(NC(=O)c2nc3c(n2C)CCN(CC24CCC(C(=O)O)(CC2)C4)C3)cccc1-c1cccc(NC(=O)c2nc3c(n2C)CCN(C)C3)c1Cl` [Example 102, 4-((2-((2′-chloro-3′-(1,5-dimethyl-4,5,6,7-tetrahydro-1H-imidazo[4,5-c]pyridine-2-carboxamido)-2-methyl-[1,1′-biphenyl]-3-yl)carbamoyl)-1-methyl-1,4,6,7-tetrahydro-5H-imidazo[4,5-c]pyridin-5-yl)methyl)bicyclo[2.2.1]heptane-1-carboxylic acid] showed an IC50 of at most 10 nM.
